Results reported in PubChem BioAssay (NCI).
Values joined by “and” are separate entries in the source; they are usually repeats but may differ in a detail not shown here. Equal entries are not always repeated.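 Briefly, cells in 96-well plates were exposed to five compound concentrations for 48 h, and endpoints were estimated by linear interpolation. GI50 is the concentration that inhibits growth by half. TGI denotes the concentration required for complete inhibition of growth.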

Assays:
Test in all cases: NCI anticancer screen, dose series, 48 h
SNB-75 CNS = tested on: SNB-75 CNS
HOP-92 NSCLC = tested on: HOP-92 NSCLC
OVCAR-3 ovarian = tested on: OVCAR-3 ovarian
BT-549 breast = tested on: BT-549 breast
786-0 renal = tested on: 786-0 renal
MDA-MB-231 breast = tested on: MDA-MB-231 breast
HS 578T breast = tested on: HS 578T breast
SR leukemia = tested on: SR leukemia
MDA-MB-435 = tested on: MDA-MB-435
ACHN renal = tested on: ACHN renal

SMILES | TGI (SNB-75 CNS) | TGI (HOP-92 NSCLC) | TGI (OVCAR-3 ovarian) | TGI (BT-549 breast) | TGI (786-0 renal) | TGI (MDA-MB-231 breast) | TGI (HS 578T breast) | TGI (SR leukemia) | TGI (MDA-MB-435) | TGI (ACHN renal) | GI50 (SNB-75 CNS) | GI50 (MDA-MB-231 breast) | GI50 (HS 578T breast) | GI50 (MDA-MB-435)
CN1CCC23c4ccccc4NC1C21CCN(C)C3Nc2ccccc21 | > 375 µM | 296 µM | > 375 µM |  |  |  |  |  |  |  |  |  |  | 
Cc1nc(Cl)c(C)c(Cl)n1 | > 100 µM |  | > 100 µM | > 100 µM | > 100 µM | > 100 µM | > 100 µM | 71.8 µM | > 100 µM | > 100 µM |  |  |  | 
COC1(OC)C[C@H](C)[C@@]23O[C@]24c2cc(O)c5c(c2N[C@H]3C#C/C=C\C#C[C@]14O)C(=O)c1ccccc1C5=O | 0.00927 µM and 0.0318 µM | 0.00982 µM | 0.77 µM | 0.125 µM | 0.0245 µM |  | 0.516 µM and 3.6 µM |  | 0.139 µM and 0.175 µM |  | 0.0028 µM | 0.0199 µM | 0.0847 µM | 0.0184 µM
COc1ccc(OC)c2sc(N3C(=O)/C(=C/c4ccccc4S)N=C3c3ccccc3)nc12 | 57.2 µM | > 100 µM | > 100 µM | > 100 µM | > 100 µM | > 100 µM | > 100 µM | 35.2 µM | 52 µM | > 100 µM |  |  |  | 
O=C1CC(n2cccc2)c2cc(Br)sc21 (centres undefined) | > 100 µM | > 100 µM | > 100 µM | > 100 µM | > 100 µM | > 100 µM | > 100 µM | > 100 µM | > 100 µM | > 100 µM |  |  |  | 
N#CCc1[nH]nc2nc(SCc3ccccc3)nc(N3CCCCC3)c12 | 33.7 µM | 31.6 µM | 37.4 µM | 34.1 µM | 31.8 µM |  | 39.2 µM |  | 35 µM | 41.5 µM |  |  |  | 
O=C1CS(=O)(=O)C(c2cccc(Oc3ccccc3)c2)N1c1cccc(Cl)c1Cl (centres undefined) | 92.3 µM | 41.6 µM | 57.3 µM |  | 32.7 µM | 70.6 µM | 90 µM | 52 µM | 48.8 µM | 43.6 µM |  |  |  | 
OC1C=C2C3CN(Cc4cc5c(cc43)OCO5)[C@H]2C[C@@H]1O (some centres undefined) | 4.56 µM | 46.9 µM | > 100 µM | 14.7 µM | 36.3 µM | 68.5 µM | > 100 µM | > 100 µM | 24.7 µM | 33.1 µM |  |  |  | 
Cc1c2c(cc3c1[nH]c1ccccc13)C(c1ccc(F)cc1)=NCC2 | 4.39 µM | 7.27 µM | 2.93 µM |  |  |  |  |  |  |  |  |  |  | 
OC(c1ccc(-c2ccccc2)cc1)(c1ccc(-c2ccccc2)cc1)c1ccc(-c2ccccc2)cc1 |  |  | > 100 µM | > 100 µM | > 100 µM | > 100 µM | > 100 µM | > 100 µM | > 100 µM | > 100 µM |  |  |  | 
CO[C@@]12C[C@@H](CNC(=O)c3cc(Br)c[nH]3)O[C@@H]1NC(=O)N2 | > 100 µM |  | > 100 µM | > 100 µM | > 100 µM | > 100 µM | > 100 µM |  | > 100 µM | > 100 µM |  |  |  | 
CCC(C)C(NC(=O)C(CCCCN)NC(=O)C(NC(=O)C(CCC(N)=O)NC(=O)C(CCCNC(=N)N)NC(C)=O)C(C)CC)C(=O)NC(Cc1c[nH]c2ccccc12)C(=O)NC(Cc1ccccc1)C(=O)NC(CCC(N)=O)C(=O)NC(CC(N)=O)C(=O)NC(CCCNC(=N)N)C(=O)NC(CCCNC(=N)N)C(=O)NC(CCSC)C(=O)NC(CCCCN)C(=O)NC(Cc1c[nH]c2ccccc12)C(=O)NC(CCCCN)C(=O)NC(CCCCN)C(N)=O (centres undefined) |  | > 50 µM | > 50 µM | > 50 µM | 42.1 µM | 41.3 µM | > 50 µM | > 50 µM | > 50 µM | > 50 µM |  |  |  | 
O=C(O)C(Cc1ccccc1)N1C(=O)c2ccccc2C1=O (centres undefined) |  | > 100 µM | > 100 µM | > 100 µM | > 100 µM | > 100 µM | > 100 µM |  | > 100 µM | > 100 µM |  |  |  | 
CC(=O)C1(c2ccccc2)CCCN(C)CC1 (centres undefined) | > 100 µM | > 100 µM | > 100 µM | > 100 µM |  | > 100 µM | > 100 µM | > 100 µM | > 100 µM |  |  |  |  | 
